Test results: patent publication US20250197372A1 (priority 2020, published 2025)

target: T1, recombinant human GBA (beta-glucocerebrosidase) (Homo sapiens, UniProt P04062); test: Beta-glucocerebrosidase (GBA, glucosylceramidase) assay (4-methylumbelliferyl-beta-D-pyranoside substrate, fluorescence); type: biochemical
T1 sequence (P04062 40-536): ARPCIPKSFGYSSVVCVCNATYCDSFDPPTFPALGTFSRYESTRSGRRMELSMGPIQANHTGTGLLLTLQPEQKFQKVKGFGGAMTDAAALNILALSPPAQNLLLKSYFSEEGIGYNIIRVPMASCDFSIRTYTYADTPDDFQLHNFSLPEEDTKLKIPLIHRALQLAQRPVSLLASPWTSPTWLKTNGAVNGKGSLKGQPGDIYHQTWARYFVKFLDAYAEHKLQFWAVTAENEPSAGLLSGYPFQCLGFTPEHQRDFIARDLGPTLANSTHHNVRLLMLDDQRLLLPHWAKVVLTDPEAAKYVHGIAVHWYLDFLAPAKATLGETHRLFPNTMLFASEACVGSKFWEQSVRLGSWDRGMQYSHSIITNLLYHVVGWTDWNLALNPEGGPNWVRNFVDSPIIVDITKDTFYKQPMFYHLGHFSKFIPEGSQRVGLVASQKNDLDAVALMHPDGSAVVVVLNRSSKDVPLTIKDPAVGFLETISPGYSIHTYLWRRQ
How it was run: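 IC50 by four-parameter fit of percent inhibition, with product fluorescence (365/440 nm) read after a glycine/NaOH pH 10 stop. Compound and commercial recombinant human enzyme were incubated 60 min at 37 °C before a further 60 min at 37 °C with 4-methylumbelliferyl-beta-D-pyranoside substrate.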

Compound | IC50 [µM]
N#Cc1cc(Br)cc(NCc2ccc(CN3C[C@H](O)[C@@H](O)[C@H](O)[C@H]3CO)cc2)c1 [Compound 1026, 3-bromo-5-{[(4-{[(2R,3R,4R,5S)-3,4,5-trihydroxy-2-(hydroxymethyl)piperidin-1-yl]methyl}phenyl)methyl]amino}benzonitrile] | 37.9
CN(Cc1cccc(CN2C[C@H](O)[C@@H](O)[C@H](O)[C@H]2CO)c1)c1ccc(CN2CCCO2)cc1[N+](=O)[O-] [Compound 1020] | 76.3
Cc1cc(NCc2cccc(CN3C[C@H](O)[C@@H](O)[C@H](O)[C@H]3CO)n2)cc(-c2ccco2)c1 [Compound 1334, (2R,3R,4R,5S)-1-{[6-({[3-(furan-2-yl)-5-methylphenyl]amino}methyl)pyridin-2-yl]methyl}-2-(hydroxymethyl)piperidine-3,4,5-triol] | > 100
COc1ccc(CCCCCN2C[C@H](O)[C@@H](O)[C@H](O)[C@H]2CO)cc1 [Compound 1310, (2R,3R,4R,5S)-2-(hydroxymethyl)-1-[5-(4-methoxyphenyl)pentyl]piperidine-3,4,5-triol] | 16.9
Cc1cc(NCc2cccc(CN3C[C@H](O)[C@@H](O)[C@H](O)[C@H]3CO)c2)cc(N2CCOCC2)c1 [Compound 1031, (2R,3R,4R,5S)-2-(hydroxymethyl)-1-{[3-({[3-methyl-5-(morpholin-4-yl)phenyl]amino}methyl)phenyl]methyl}piperidine-3,4,5-triol] | > 100
CN(C)Cc1ccc(NCCCCCCN2C[C@H](O)[C@@H](O)[C@H](O)[C@H]2CO)c(C#N)c1 [Compound 1257, 5-[(dimethylamino)methyl]-2-({6-[(2R,3R,4R,5S)-3,4,5-trihydroxy-2-(hydroxymethyl)piperidin-1-yl]hexyl}amino)benzonitrile] | 6.53
COc1ccc(-c2ccc(CN3C[C@H](O)[C@@H](O)[C@H](O)[C@H]3CO)cc2)cc1 [Compound 1306, (2R,3R,4R,5S)-2-(hydroxymethyl)-1-({4′-methoxy-[1,1′-biphenyl]-4-yl}methyl)piperidine-3,4,5-triol] | > 100
Nc1ccc(NCCCCCCCCN2C[C@H](O)[C@@H](O)[C@H](O)[C@H]2CO)c([N+](=O)[O-])c1Cl [Compound 1277, (2R,3R,4R,5S)-1-{8-[(4-amino-3-chloro-2-nitrophenyl)amino]octyl} 2-(hydroxymethyl)piperidine-3,4,5-triol] | < 0.01
OC[C@@H]1[C@@H](O)[C@H](O)[C@@H](O)CN1CCCCCCNc1ccc(-c2ncccn2)cc1F [Compound 1229, (2R,3R,4R,5S)-1-(6-{[2-fluoro-4-(pyrimidin-2-yl)phenyl]amino}hexyl)-2-(hydroxymethyl)piperidine-3,4,5-triol] | 0.959
Cc1cc(NCc2ccc(CN3C[C@H](O)[C@@H](O)[C@H](O)[C@H]3CO)cc2)cc(-c2ncco2)c1 [Compound 1315, (2R,3R,4R,5S)-2-(hydroxymethyl)-1-{[4-({[3-methyl-5-(1,3-oxazol-2-yl)phenyl]amino}methyl)phenyl]methyl}piperidine-3,4,5-triol] | > 100
OC[C@@H]1[C@@H](O)[C@H](O)[C@@H](O)CN1CCCCCCNc1cc(Cl)cc(-c2ncco2)c1 [Compound 1211, (2R,3R,4R,5S)-1-(6-{[3-chloro-5-(1,3-oxazol-2-yl)phenyl]amino}hexyl)-2-(hydroxymethyl)piperidine-3,4,5-triol] | 0.326
COc1cc(NCCCCCCN2C[C@H](O)[C@@H](O)[C@H](O)[C@H]2CO)cc(-c2ncccn2)c1 [Compound 1217, (2R,3R,4R,5S)-2-(hydroxymethyl)-1-(6-{[3-methoxy-5-(pyrimidin-2-yl)phenyl]amino}hexyl)piperidine-3,4,5-triol] | 0.981
Cc1cc(NCc2ccc(CN3C[C@H](O)[C@@H](O)[C@H](O)[C@H]3CO)cc2)cc(-n2ccnn2)c1 [Compound 1323, (2R,3R,4R,5S)-2-(hydroxymethyl)-1-{[4-({[3-methyl-5-(1H-1,2,3-triazol-1-yl)phenyl]amino}methyl)phenyl]methyl}piperidine-3,4,5-triol] | > 100
CN(C)Cc1ccc(NCCCCCCN2C[C@H](O)[C@@H](O)[C@H](O)[C@H]2CO)c(F)c1 [Compound 1236, (2R,3R,4R,5S)-1-[6-({4-[(dimethylamino)methyl]-2-fluorophenyl}amino)hexyl]-2-(hydroxymethyl)piperidine-3,4,5-triol] | 4.63
[N-]=[N+]=Nc1ccc(NCCNC(=O)NCCN2C[C@H](O)[C@@H](O)[C@H](O)[C@H]2CO)c([N+](=O)[O-])c1 [Compound 1276, 1-{2-[(4-azido-2-nitrophenyl)amino]ethyl}-3-{2-[(2R,3R,4R,5S)-3,4,5-trihydroxy-2-(hydroxymethyl)piperidin-1-yl]ethyl}urea] | 0.062
[N-]=[N+]=Nc1ccc(NCCCCCCN2C[C@H](O)[C@@H](O)[C@H](O)[C@H]2CO)c(C(N)=O)c1 [Compound 1296, 5-azido-2-({6-[(2R,3R,4R,5S)-3,4,5-trihydroxy-2-(hydroxymethyl)piperidin-1-yl]hexyl}amino)benzamide] | 3.26
Cc1cc(-c2ncccn2)ccc1NCCCCCCN1C[C@H](O)[C@@H](O)[C@H](O)[C@H]1CO [Compound 1233, (2R,3R,4R,5S)-2-(hydroxymethyl)-1-(6-{[2-methyl-4-(pyrimidin-2-yl)phenyl]amino}hexyl)piperidine-3,4,5-triol] | 1.31
COc1ccc(C#CCCCCCN2C[C@H](O)[C@@H](O)[C@H](O)[C@H]2CO)cc1 [Compound 1338, (2R,3R,4R,5S)-2-(hydroxymethyl)-1-[7-(4-methoxyphenyl)hept-6-yn-1-yl]piperidine-3,4,5-triol] | 9.44
Cc1cc(NCc2cnc(CN3C[C@H](O)[C@@H](O)[C@H](O)[C@H]3CO)cn2)cc(-c2ccc[nH]2)c1 [Compound 1330, (2R,3R,4R,5S)-2-(hydroxymethyl)-1-{[5-({[3-methyl-5-(1H-pyrrol-2-yl)phenyl]amino}methyl)pyrazin-2-yl]methyl}piperidine-3,4,5-triol] | 13.2
[N-]=[N+]=Nc1ccc(NCCc2ccccc2CCN2C[C@H](O)[C@@H](O)[C@H](O)[C@H]2CO)c([N+](=O)[O-])c1 [Compound 1249] | 0.32
NC(=O)CCN(CCNc1ccc(-c2ncccn2)cc1[N+](=O)[O-])CCN1C[C@H](O)[C@@H](O)[C@H](O)[C@H]1CO [Compound 1226, 3-[(2-{[2-nitro-4-(pyrimidin-2-yl)phenyl]amino}ethyl)({2-[(2R,3R,4R,5S)-3,4,5-trihydroxy-2-(hydroxymethyl)piperidin-1-yl]ethyl})amino]propanamide] | 3.21
Cc1cc(NCc2cccc(CN3C[C@H](O)[C@@H](O)[C@H](O)[C@H]3CO)c2)cc(-c2cccnn2)c1 [Compound 1034, (2R,3R,4R,5S)-2-(hydroxymethyl)-1-{[3-({[3-methyl-5-(pyridazin-3-yl)phenyl]amino}methyl)phenyl]methyl}piperidine-3,4,5-triol] | 91.9
COc1cc(NCCCCCCN2C[C@H](O)[C@@H](O)[C@H](O)[C@H]2CO)cc(-c2ncc[nH]2)c1 [Compound 1219, (2R,3R,4R,5S)-2-(hydroxymethyl)-1-(6-{[3-(1H-imidazol-2-yl)-5-methoxyphenyl]amino}hexyl)piperidine-3,4,5-triol] | 8.67
COc1ccc(-c2ccc(CCCN3C[C@H](O)[C@@H](O)[C@H](O)[C@H]3CO)cc2)cc1 [Compound 1305, (2R,3R,4R,5S)-2-(hydroxymethyl)-1-(3-{4′-methoxy-[1,1′-biphenyl]-4-yl}propyl)piperidine-3,4,5-triol] | 7.86
Cc1cc(NCc2cccc(CN3C[C@H](O)[C@@H](O)[C@H](O)[C@H]3CO)c2)cc(C2=COCCO2)c1 [Compound 1032, (2R,3R,4R,5S)-1-{[3-({[3-(5,6-dihydro-1,4-dioxin-2-yl)-5-methylphenyl]amino}methyl)phenyl]methyl}-2-(hydroxymethyl)piperidine-3,4,5-triol] | > 100
[N-]=[N+]=Nc1ccc(NCCCCCCN2C[C@H](O)[C@@H](O)[C@H](O)[C@H]2CO)c(C(=O)O)c1 [Compound 1297, 5-azido-2-({6-[(2R,3R,4R,5S)-3,4,5-trihydroxy-2-(hydroxymethyl)piperidin-1-yl]hexyl}amino)benzoic acid] | 3.52
O=[N+]([O-])c1cc(Br)ccc1NCc1cccc(CN2C[C@H](O)[C@@H](O)[C@H](O)[C@H]2CO)c1 [Compound 1029, (2R,3R,4R,5S)-1-[(3-{[(4-bromo-2-nitrophenyl)-amino]methyl}phenyl)methyl]-2-(hydroxymethyl)piperidine-3,4,5-triol] | 52.3
[N-]=[N+]=Nc1ccc(NCCc2cccc(CCN3C[C@H](O)[C@@H](O)[C@H](O)[C@H]3CO)c2)c([N+](=O)[O-])c1 [Compound 1240, (2R,3R,4R,5S)-1-[2-(3-{2-[(4-azido-2-nitrophenyl)amino]ethyl}phenyl)ethyl]-2-(hydroxymethyl)piperidine-3,4,5-triol] | 0.496
N#Cc1ccc(F)cc1NCCCCCCN1C[C@H](O)[C@@H](O)[C@H](O)[C@H]1CO [Compound 1251, 4-fluoro-2-({6-[(2R,3R,4R,5S)-3,4,5-trihydroxy-2-(hydroxymethyl)piperidin-1-yl]hexyl}amino)benzonitrile] | 1.41
